Reference: patent US10508092B2, “Synthesis of novel analogs of diptoindonesin G, compounds formed thereby, and pharmaceutical compositions containing them” (Wisconsin Alumni Research Foundation, priority 2016, dated 2019)
Several values for one entry are separate records, joined by “and”; a condition that tells them apart may be missing. Equal entries are not always repeated.

Columns and labels:
ERαY537S mutant protein = assay: ELISA of ERα protein in T47D-ERαY537S cells; format: cell-based, human; settings: 24 hrs, FIG. 5
Protocol: T47D cells were treated with DMSO, Fulvestrant, Dip G and a Dip G derivative (Dip G-D1, compound 17) for 24 hrs. ERα protein amounts in cell lysate were quantified using ELISA kit (R&D systems) and normalized to standard curve using purified ERα protein. The experiments were performed in triplicate. Data are represented as mean±SD, n=3.
(T47D ERα WT is available from the American Type Culture Collection, Manassas, Va.; accession no. HTB-133. The T47D ERα Y537S cell line is described in Wardell et al 2015) “Efficacy of SERD/SERM Hybrid-CDK4/6 Inhibitor Combinations in Models of Endocrine Therapy-Resistant Breast Cancer,” Clin Cancer Res. 21(22):5121-5130. […] McCormack, P. and Sapunar, F. (2008) “Pharmacokinetic profile of the fulvestrant loading dose regimen in postmenopausal women with hormone receptor-positive advanced breast cancer,” Clinical breast cancer 8:347-351.

CHIP ubiquitin E3 ligase = target: T1, CHIP ubiquitin E3 ligase (Homo sapiens, UniProt Q9UNE7); settings: Zhao et al. 2015; cited from earlier work
T1 sequence (Q9UNE7 1-303): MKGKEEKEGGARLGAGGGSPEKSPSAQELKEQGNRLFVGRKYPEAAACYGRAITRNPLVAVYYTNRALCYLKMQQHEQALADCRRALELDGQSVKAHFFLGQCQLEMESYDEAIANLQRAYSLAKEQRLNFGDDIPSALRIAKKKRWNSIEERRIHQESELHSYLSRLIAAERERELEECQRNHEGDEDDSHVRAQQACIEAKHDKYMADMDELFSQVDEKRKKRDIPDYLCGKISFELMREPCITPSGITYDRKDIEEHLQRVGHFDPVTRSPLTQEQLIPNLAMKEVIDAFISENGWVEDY

T47D xenograft tumor = T47D xenograft tumor growth in mice, intra-tumoral dosing; format: in vivo, mouse
Protocol: Dip G inhibited growth of T47D xenograft tumor in vivo. Dip G was synthesized as described and formulated for the in vivo treatment. Dip G was prepared by dissolving the stock powder in 100% DMSO to a final concentration of 50 mg/ml. This stock solution was then diluted 1:5 into a 40% polyethylene glycol (PEG300)/40% normal saline (0.9% NaCl) solution to a final concentration of 20% Dip G solution. The maximum tolerated dose (MTD) of Dip G was determined to be 50 mg/kg by oral and 20 mg/kg by retro-orbital injection in mouse models. To determine MTD, escalating doses of Dip G dissolved in the aforementioned formulation were injected retro-orbitally or by oral gavage daily, five days out of seven to determine the MTD. […] (Data not shown.) Dip G was intra-tumorally delivered to ERα-positive T47D xenografted mice three times a week and the tumors were monitored for three weeks. […] Control-treated tumors were 70% of original size, while tumors (n=16) treated with Dip G were 46% of original size (FIG. 3). Under these treatment conditions, some Dip G-treated tumors completely regressed. […] (AST ELISAs are available commercially from several suppliers, including Abcam, Cambridge, Mass.)
Diptoindonesin G (Dip G) was obtained from the small molecule screening facility. Dip G was prepared by dissolving the stock powder in 100% DMSO to a final concentration of 50 mg/mL. This stock solution was then diluted 1:5 into a 40% polyethylene glycol (PEG 300)/40% normal saline (0.9% NaCl) solution to a final concentration of 20% Dip G solution. Vehicle was prepared identically, substituting DMSO instead of Dip G solution. PEG and saline were filtered at […] prior to use to ensure sterility.
Twelve Foxn1-nu homozygous mice were obtained from The Jackson Laboratory (Bar Harbor, Me.). Mice were randomized to control or active treatment prior to estrogen pellet placement. After allowing time for acclimatization, estrogen pellets were surgically inserted into the test mice, subcutaneously on the back. The skin at the site of surgery was prepared by washing with povidone iodine, allowing a three-minute contact time. Surgery was performed in a laminar flow hood while mice were under anesthesia. Incisions of less than 1 cm were made low in the back using a short scissors. Slow-release estrogen pellets (0.05 mg/60 day release) were implanted in each incision. Wounds were sealed with “VETBOND”®-brand surgical adhesive (3M Company, St. Paul, Minn.). At the same time, the mice were injected with 10^7 T-47D cells (ATCC HTB-133) twice, once in each mammary fat pad underneath the leg with 100 uL of fluid per injection site, using 25G needles.
Mice were monitored twice weekly for weight changes and tumor growth (measured in diameter and volume) with calipers. Following tumors reaching an appropriate size (˜5 mm in diameter, taking approximately 3 months after grafting), intra-tumoral injections were begun with vehicle containing 20 mg/kg of Dip G or control vehicle in a total volume of 50 μL split between tumors on each mammary fat pad. Three mice (6 tumors) received control injections and eight (16 tumors) received Dip G. Injections were administered 3 times per week with at least one day of rest between injections, for a total of 10-12 injections. Cohorts were sacrificed by cage individually in numerical order, beginning with the 10th injection and sacrificing one cage per injection for pharmacokinetic time points from that injection onward. In mice with very small tumors, dosing was switched from intra-tumoral to subcutaneous at later time points.

[1] = system: mouse splenic lymphocytes (T cells); settings: concanavalin A induced proliferation of mouse splenic lymphocytes; cited from earlier work
[2] = individual tumor, 20 mg/kg intra-tumoral 3 times per week, 20 mg/kg

## O=C1c2c(O)cc(O)cc2-c2c(-c3ccc(O)cc3)oc3cc(O)cc1c23 [Dip G, diptoindonesin G]
ERαY537S mutant protein
  degradation of ERαY537S mutant protein: more effective than 100 nM fulvestrant
CHIP ubiquitin E3 ligase
  target E3 ubiquitin ligase CHIP (STUB1): found to target
T47D xenograft tumor; T47D xenograft, 20 mg/kg intra-tumoral 3 times per week, 21 days, n=16 tumors, control 70%
  tumor size as % of original size: 46%
T47D xenograft tumor; T47D xenograft, 12 of 16 tumors, control 17%, p=0.023
  responders (tumors decreasing by 50% or more): 75%
T47D xenograft tumor; T47D xenograft, 21 days, versus vehicle-treated controls
  xenografted tumor growth: strongly inhibited
T47D xenograft tumor; T47D xenograft, at study completion, n=16 tumors, control 30%
  decrease in tumor volume: 54%
T47D xenograft tumor; [2]
  Tumor Volumes, Day 3: 113.1 mm^3 and 29.8 mm^3 and 71.4 mm^3 and 25.7 mm^3 and 69.6 mm^3 and 17.2 mm^3 and 126.0 mm^3 and 79.8 mm^3 and 144.9 mm^3 and 40.7 mm^3 and 43.3 mm^3 and 70.7 mm^3 and 30.8 mm^3 and 15.1 mm^3 and 149.4 mm^3 and 68.9 mm^3
  Tumor Volumes, Day 5: 100.0 mm^3 and 34.7 mm^3 (2×) and 36.0 mm^3 and 58.8 mm^3 (2×) and 23.1 mm^3 and 108.0 mm^3 and 84.7 mm^3 and 152.5 mm^3 and 51.6 mm^3 and 44.0 mm^3 and 36.1 mm^3 and 18.9 mm^3 and 111.6 mm^3 and 87.7 mm^3
  Tumor Volumes, Day 8: 74.1 mm^3 and 20.0 mm^3 and 26.0 mm^3 and 14.5 mm^3 and 52.9 mm^3 and 14.0 mm^3 and 65.0 mm^3 and 55.0 mm^3 and 99.1 mm^3 and 32.8 mm^3 and 46.6 mm^3 and 55.2 mm^3 and 20.7 mm^3 and 21.8 mm^3 and 43.6 mm^3 and 40.3 mm^3
  Tumor Volumes, Day 10: 106.2 mm^3 and 73.0 mm^3 and 39.2 mm^3 and 37.6 mm^3 and 64.8 mm^3 and 28.1 mm^3 and 105.6 mm^3 and 95.3 mm^3 and 123.0 mm^3 and 49.0 mm^3 and 56.1 mm^3 and 58.2 mm^3 and 32.9 mm^3 and 44.5 mm^3 and 63.6 mm^3 and 67.7 mm^3
  Tumor Volumes, Day 12: 225.3 mm^3 and 33.6 mm^3 and 34.5 mm^3 and 18.5 mm^3 and 77.2 mm^3 and 13.9 mm^3 and 123.6 mm^3 and 0.5 mm^3 (2×) and 97.7 mm^3 and 48.7 mm^3 and 49.0 mm^3 and 63.6 mm^3 and 29.4 mm^3 and 23.1 mm^3 and 189.2 mm^3
  Tumor Volumes, Day 15: 81.6 mm^3 and 41.6 mm^3 and 35.3 mm^3 and 32.0 mm^3 and 78.0 mm^3 and 19.7 mm^3 and 72.5 mm^3 and 37.0 mm^3 and 62.5 mm^3 and 22.9 mm^3 and 35.4 mm^3 and 53.0 mm^3 and 22.0 mm^3 and 20.1 mm^3 and 92.5 mm^3 and 49.6 mm^3
  Tumor Volumes, Day 19: 91.9 mm^3 and 38.8 mm^3 and 12.0 mm^3 and 19.7 mm^3 and 45.6 mm^3 and 11.5 mm^3 and 58.8 mm^3 and 28.7 mm^3 and 90.9 mm^3 and 15.6 mm^3 and 24.6 mm^3 and 35.7 mm^3 (2×) and 14.9 mm^3 and 9.3 mm^3 and 58.2 mm^3
  Tumor Volumes, Day 23: 0.5 mm^3 and 12.2 mm^3 and 9.1 mm^3 and 29.7 mm^3 and 81.5 mm^3 and 10.3 mm^3 and 51.9 mm^3 and 13.1 mm^3 and 7.9 mm^3 and 9.5 mm^3 and 28.1 mm^3 and 29.8 mm^3 and 18.5 mm^3 and 10.1 mm^3 and 34.2 mm^3 and 14.9 mm^3
T47D xenograft tumor; individual tumor, baseline, T47D xenograft
  Tumor Volumes, Day 0: 75.1 mm^3 and 40.3 mm^3 and 39.7 mm^3 and 71.3 mm^3 (2×) and 50.8 mm^3 and 25.4 mm^3 and 80.2 mm^3 (2×) and 96.2 mm^3 and 24.9 mm^3 and 70.2 mm^3 and 29.6 mm^3 and 23.1 mm^3 and 47.1 mm^3 and 52.9 mm^3
[1]
  immunosuppressant activity: immunosuppressant activity
